Test results reported in patent publication US20230301982A1, “N'-(2-CHLORO-6-METHYLBENZOYL)-4-METHYL-3-[2-(3-QUINOLYL)ETHYNYL]-BENZOHYDRAZIDE FOR TREATMENT OF ALZHEIMER'S DISEASE” (SUN PHARMA ADVANCED RESEARCH COMPANY LIMITED, priority 2020, published 2023).

Experiments:
[1] = tested on: K562 cells; test: In-vitro Cell Proliferation Assay (K562 cells; measure of endogenous Bcr-Abl kinase inhibition); type: cell-based; conditions: for inhibition at 0.0001 µM: Homo sapiens, read-out: % inhibition (at 0.1 nM), 0.1 nM, cell proliferation of K562 cells
From the text: (For experimental procedure, refer to the ‘416 publication under In-vitro Cell Proliferation Assay heading).

[2] = tested on: Aβ42; test: Estimation of Aβ42 and Aβ42/Aβ40 ratio in TgSwDI mice using ELISA; type: in vivo; conditions: o.d., 96 days, TgSwDI mice cortex
Experimental: Female TgSwDI (expresses human APP gene containing Swedish, Dutch, and Iowa mutations) of 5-7 months of age were used for the study. Animals were habituated for handling for one week prior to initiation of dosing. All experiments involving animals were performed in accordance with institutional guidelines for the use and care of animals after approval from the Institutional Animal Ethics Committee (IAEC), Sun Pharma Advanced Research Company (SPARC) Ltd. Mice were housed at an ambient temperature of 25° C. under 12 hours light-dark cycle with free access to food chow and drinking water. Animals were treated with assigned treatments p.o., o.d., for a period of 96 days. […] After completion of treatment phase, mice from each treatment group were perfused with ice-cold phosphate buffered saline (PBS, pH 7.4), brain was excised, cortex was isolated and processed for preparation of lysates as per protocol provided by Invitrogen ELISA kit. Estimation of Aβ42 and Aβ40 were carried out as per the instructions provided by Invitrogen user manual. Ratio of Aβ42/40 was calculated.

[3] = tested on: Tg APP/PS1 mice; test: Contextual fear conditioning (CFC): freezing behaviour in Tg APP/PS1 mice; type: in vivo; conditions: 24 hours after fear conditioning
Experimental: (§1) Six month old male APP/PS1 mice which show little overt behavioral or pathological phenotype of AD were used. All experiments involving animals were performed in accordance with institutional guidelines for the use and care of animals after approval from the Institutional Animal Ethics Committee (IAEC), Central Animal Facility, Indian Institute of Science. Only male mice were used for the study and were housed at ambient temperature of 25° C. under 12 hours light-dark cycle with free access to food chow and drinking water. All mice were dosed once a day, orally with placebo for Compound 1 at 30 and 45 mg/kg for a period of three months.
(§2) After completion of treatment phase, mice were subjected to behavioural assessment using CFC test, followed by biochemical estimation of brain Aβ using an enzyme-linked immunosorbent assay (ELISA) and Aβ plaque load using Immunohistochemistry (IHC).
The CFC test was performed using an apparatus from San Diego Instruments (CA, USA). The CFC training context was rectangular in shape, identity of the context was maintained with the presence of distinct odor (2% acetic acid, v/v). The conditioning chamber was cleaned with 70% ethanol before and after each session. […] Contextual fear memory was assessed by returning mice to the training context 24 hours after fear conditioning and analyzing freezing during a test period of 2 minutes. […]

[4] = tested on: ECG parameters (QT interval, QTc interval, QTCf interval and heart rate); test: in vivo effect on ECG parameters in guinea pig; conditions: at a therapeutically effective dose
[5] = molecular target: hERG channel (Homo sapiens, UniProt Q12809); test: in vitro effect on hERG channel; conditions: at a therapeutically effective dose
Chain of hERG channel (Q12809 whole entry): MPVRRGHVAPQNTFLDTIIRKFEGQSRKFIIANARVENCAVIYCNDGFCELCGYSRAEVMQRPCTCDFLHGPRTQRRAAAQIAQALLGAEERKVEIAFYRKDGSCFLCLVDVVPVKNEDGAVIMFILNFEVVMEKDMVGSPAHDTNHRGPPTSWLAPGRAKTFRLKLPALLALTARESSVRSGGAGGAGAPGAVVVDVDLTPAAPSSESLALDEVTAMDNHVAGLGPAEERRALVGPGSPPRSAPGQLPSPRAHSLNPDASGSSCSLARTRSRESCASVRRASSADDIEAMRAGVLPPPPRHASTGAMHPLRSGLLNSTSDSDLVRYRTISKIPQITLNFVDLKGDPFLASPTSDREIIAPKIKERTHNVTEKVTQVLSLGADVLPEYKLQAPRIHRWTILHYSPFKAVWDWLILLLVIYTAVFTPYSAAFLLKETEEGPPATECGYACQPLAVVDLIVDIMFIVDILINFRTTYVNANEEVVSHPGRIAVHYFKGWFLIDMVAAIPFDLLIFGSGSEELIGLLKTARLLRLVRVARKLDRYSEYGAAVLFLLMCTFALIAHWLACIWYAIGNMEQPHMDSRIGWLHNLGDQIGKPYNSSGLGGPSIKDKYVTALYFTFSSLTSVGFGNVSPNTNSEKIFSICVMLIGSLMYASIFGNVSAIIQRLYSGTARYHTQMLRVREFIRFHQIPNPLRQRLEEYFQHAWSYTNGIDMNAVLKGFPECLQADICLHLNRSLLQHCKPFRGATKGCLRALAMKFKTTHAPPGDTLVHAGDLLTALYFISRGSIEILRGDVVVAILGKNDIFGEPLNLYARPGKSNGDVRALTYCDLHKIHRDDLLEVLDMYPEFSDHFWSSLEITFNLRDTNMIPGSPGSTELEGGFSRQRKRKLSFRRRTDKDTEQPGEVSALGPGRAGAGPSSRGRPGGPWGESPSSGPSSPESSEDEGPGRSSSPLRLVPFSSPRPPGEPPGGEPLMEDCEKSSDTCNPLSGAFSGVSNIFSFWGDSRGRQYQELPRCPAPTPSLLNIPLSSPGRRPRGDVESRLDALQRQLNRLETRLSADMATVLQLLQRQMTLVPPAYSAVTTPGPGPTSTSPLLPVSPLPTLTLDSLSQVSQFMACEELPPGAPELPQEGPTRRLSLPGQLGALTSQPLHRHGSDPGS

[6] = tested on: total Aβ; test: Total Aβ content in cortex of Tg APP/PS1 mice using ELISA; type: in vivo
Experimental: as §1, §2
The animals were (n=10/treatment) deeply anesthetized with a mixture of xylazine and ketamine (1:8), perfused with 10 mL of 1x saline for 4 minutes, their brains were excised, homogenized immediately in 0.5 mL ELISA buffer, and centrifuged at 5000xg for 15 minutes at 4° C. to precipitate the pellet. Total Aβ was estimated in the cortex of APP/PS1 mice using ELISA assay kit as per the manufacturer instruction.

[7] = tested on: ECG parameters (QT interval, QTc interval, QTCf interval and heart rate); test: in vivo effect on ECG parameters in conscious beagle dogs; conditions: at a therapeutically effective dose
[8] = tested on: Aβ plaque; test: Aβ plaque load (% area fraction) in cortex of Tg APP/PS1 mice using IHC; type: in vivo; conditions: 30 mg/kg orally once a day for three months
Experimental: as §1, §2
Mouse brains (n=5/treatment) were fixed in 4% (w/v) buffered paraformaldehyde (PFA). The brain tissues were processed for paraffin embedding and serial sections ([…]) were cut using microtome (Leica Biosystems Inc., Buffalo Grove, IL, USA). Sections were de-waxed by xylene treatment followed by a brief wash with chloroform to remove the residual xylene. Endogenous peroxidase activity was blocked with methanol containing hydrogen peroxide (3%, v/v) for 30 minutes. […]

[9] = Concentration of compounds in brain and plasma; type: in vivo
[10] = 30 mg/kg orally once a day for three months
[11] = 45 mg/kg orally once a day for three months

Cc1ccc(C(=O)NNC(=O)c2c(C)cccc2Cl)cc1C#Cc1cnc2ccc(Cl)cc2c1 [Compound 1.50 of the ‘416 publication]
inhibition at 0.0001 µM [1]: 0%

Cc1cccc(Cl)c1C(=O)NNC(=O)c1cccc(C#Cc2cnc3ccccc3c2)c1 [Compound 1.59 of the ‘416 publication]
inhibition at 0.0001 µM [1]: 2%

Cc1ccc(C(=O)NNC(=O)c2c(C)cccc2Cl)cc1C#Cc1cnc2ccccc2c1 [Compound 1, N′-(2-chloro-6-methylbenzoyl)-4-methyl-3-[2-(3-quinolyl)ethynyl]-benzohydrazide]
effect on Aβ42 content compared to placebo group ([2]; 30 mg/kg p.o.): statistically significant
effect on Aβ42 content compared to placebo group ([2]; 45 mg/kg p.o.): statistically significant
Aβ42/Aβ40 ratio, trend over doses ([2]; 15, 30, and 45 mg/kg p.o.): dose-dependent reduction
Aβ42 content, trend over doses ([2]; 15, 30, and 45 mg/kg p.o.): dose-dependent reduction
% freezing of mice (CFC) compared to placebo treated group [3, 10]: significant increase
% freezing of mice (CFC) compared to placebo treated group [3, 11]: significant increase
cardiovascular side effects: in vivo effect on ECG parameters (QT, QTc, QTCf interval, heart rate) [4]: devoid of cardiovascular side effects
inhibition at 0.0001 µM [1]: 37%
potency (inhibition of K562 cell proliferation) ([1]; at 0.1 nM, Compound 1 versus similar compounds from the ‘416 publication): significantly higher
cardiovascular side effects: in vitro effect on hERG channel [5]: devoid of cardiovascular side effects
total Aβ content in cortex compared to placebo treated group [6, 10]: significant reduction
total Aβ content in cortex compared to placebo treated group [6, 11]: significant reduction
cardiovascular side effects: in vivo effect on ECG parameters (QT, QTc, QTCf interval, heart rate) [7]: devoid of cardiovascular side effects
Aβ plaque (% area fraction) in cortex compared to placebo [8]: significantly reduced
higher ratio of brain to plasma concentration compared to nilotinib ([9]; at 1 hour, versus nilotinib): about 40 times
brain penetration compared with dasatinib ([9]; versus dasatinib): significantly better brain penetration
ratio of concentration in brain to plasma as compared to nilotinib or dasatinib ([9]; versus nilotinib or dasatinib): significantly higher

Cc1ccc(C(=O)NNC(=O)c2c(C)cccc2Cl)cc1C#Cc1cnc2ccc(F)cc2c1 [Compound 1.55 of the ‘416 publication]
inhibition at 0.0001 µM [1]: 0%

Cc1ccc(C(=O)NNC(=O)c2c(C)cccc2Cl)cc1C#Cc1ccc2ncccc2c1 [Compound 1.10 of the ‘416 publication]
inhibition at 0.0001 µM [1]: 0%

Cc1cccc(Cl)c1C(=O)NNC(=O)c1ccc(F)c(C#Cc2cnc3ccccc3c2)c1 [Compound 1.21 of the ‘416 publication]
inhibition at 0.0001 µM [1]: 6%

Cc1cn(-c2cc(NC(=O)c3ccc(C)c(Nc4nccc(-c5cccnc5)n4)c3)cc(C(F)(F)F)c2)cn1 [Nilotinib, nilotinib, reference compound]
effect on Aβ42 content compared to placebo group ([2]; 30 mg/kg p.o.): no statistically significant reduction
